The structures appear in SMILES notation.

These results are taken from publication PMC8041284, “Tunable Methacrylamides for Covalent Ligand Directed Release Chemistry” (Journal of the American Chemical Society, 2021).

For the first experiment, the target named is BTK (Homo sapiens, UniProt Q06187). Nature of the experiment: biochemical. The conditions noted are these: read-out: BTK inhibition (%).
BTK, sequence (Q06187 402-655 limits assumed): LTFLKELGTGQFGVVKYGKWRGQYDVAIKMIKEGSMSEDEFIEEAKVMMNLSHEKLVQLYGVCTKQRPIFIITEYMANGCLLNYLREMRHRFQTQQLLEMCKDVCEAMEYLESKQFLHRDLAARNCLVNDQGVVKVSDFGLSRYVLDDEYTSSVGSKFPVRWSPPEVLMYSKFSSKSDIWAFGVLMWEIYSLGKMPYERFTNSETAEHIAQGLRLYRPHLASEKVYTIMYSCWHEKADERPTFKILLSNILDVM
As a reminder, the inhibition is the relative decrease from the control value, in per cent. Regarding `CC(C(=O)O)C(=O)O` [PCM-0214910], the inhibition at 10 µM is -6.2%.

The same experiment, now with this note: read-out: BTK inhibition (%), 0.75 uM BTK, […] probe 3l, 15 min preincubation.
Take `COc1ccc(S(=O)(=O)N(C(C)=O)c2ccccc2/C=C/c2cc[n+]([O-])cc2)cc1` [PCM-0095165]: the inhibition at 10 µM was -18.6%. The same measure, in the same setting: next, `CS(=O)(=O)c1cccc(CNc2nc(Nc3ccc4c(c3)CCC(=O)N4)ncc2C(F)(F)F)c1` [PCM-0064954]: 55.2%; `COc1cc(/C=C/C(=O)N2CCN(CC(=O)N3CCCC3)CC2)cc(OC)c1OC` [PCM-0095532]: 0%. On the same count and under the same terms, the result for `NC(=O)c1cccc(N)c1` [PCM-0064562] reads -3.9%; that for `C[C@@H](O[C@H]1OCCN(Cc2nn(P(=O)(O)O)c(=O)[nH]2)[C@H]1c1ccc(F)cc1)c1cc(C(F)(F)F)cc(C(F)(F)F)c1` [PCM-0214804], 10.1%; that for `Cn1ncc(Cl)c1-c1cc(C(=O)N[C@H](CN)Cc2cccc(F)c2)sc1Cl` [PCM-0215459], -40%.

Take `CN1CCCC(n2nc(Cc3ccc(Cl)cc3)c3ccccc3c2=O)CC1` (stereo not shown) [PCM-0086017]: the inhibition at 10 µM amounted to 5.5%. `CC(C)OC(=O)CCC/C=C\C[C@@H]1[C@@H](CC[C@@H](O)CCc2ccccc2)[C@H](O)C[C@@H]1O` [PCM-0215712]: the inhibition at 10 µM was -13.1%.

Regarding `CC(=O)N1CCC(Nc2cc(C(=O)NC[C@H](O)CN3CCc4ccccc4C3)ncn2)CC1` [PCM-0215901], the inhibition at 10 µM was -0.8%.

Regarding `CCc1nc(C(N)=O)c(Nc2ccc(N3CCC(N4CCN(C)CC4)CC3)c(OC)c2)nc1NC1CCOCC1` [PCM-0215866], the inhibition at 10 µM was 73.8%. Same read-out and setting: next, `Cc1cccc(Cc2cnc[nH]2)c1C` [PCM-0095257]: -20.2%; `CCCCCCCCC[C@H](O)CC(=O)CCc1ccc(O)c(OC)c1` [PCM-0216384]: -10.8%.

With `CC(=O)O[C@@H]1C[C@H](C)CC[C@H]1C(C)C` [PCM-0216217], the inhibition at 10 µM worked out at 13.1%. Still for that read-out and setting: the result for `CCCCCCCCCCCCCCCCCCCCCCCCCCCCO` [PCM-0215950] reads -11.1%; that for `CCCC1O[C@@H]2C[C@H]3[C@@H]4CCC5=CC(=O)C=C[C@]5(C)[C@H]4[C@@H](O)C[C@]3(C)[C@]2(C(=O)CO)O1` (stereo partly shown) [PCM-0214610], -13.1%; that for `Oc1cc(CNC(=S)/C=C/c2cc(O)c(O)c(Br)c2)cc(O)c1O` [PCM-0215728], 43.4%. On the same count and under the same terms, next, `C[C@H](CSC(=O)c1ccccc1)C(=O)N1C[C@@H](Sc2ccccc2)C[C@H]1C(=O)O` [PCM-0216252]: -43.2%; `CO/N=C1\C[C@]2(C[C@@H]3C[C@@H](C/C=C(\C)C[C@@H](C)/C=C/C=C4\CO[C@@H]5[C@H](O)C(C)=C[C@@H](C(=O)O3)[C@]45O)O2)O[C@H](/C(C)=C/C(C)C)[C@H]1C` [PCM-0214892]: 16.3%; `CC1=CC[C@@H](C(C)(C)O)CC1` [PCM-0216214]: -20.8%. The same measure, in the same setting: next, `Cn1cc(C2=C(c3cn(CCCSC(=N)N)c4ccccc34)C(=O)NC2=O)c2ccccc21` [PCM-0215237]: 117%. Consider `CS(=O)(=O)c1ccc(-c2nnc(/C=C/c3nnc(-c4ccc(C#N)cc4)o3)n2-c2ccccc2Cl)nc1` [PCM-0215499], for which the inhibition at 10 µM amounted to 0%.

In the case of `N#Cc1c(NC(=O)c2cccc3ccccc23)sc2c1CCCC2` [PCM-0095805], the inhibition at 10 µM turned out to be 16.6%. The same measure, in the same setting: the result for `CCOC(=O)C1=C(N)Oc2ccc(Cl)cc2C1C(C#N)C(=O)OCC` (stereo not shown) [PCM-0215487] reads 40.9%; that for `CC(COc1ccccc1Cc1ccccc1)N1CCCCC1` (stereo not shown) [PCM-0216136], -17%.

On to `NC(=O)Cc1c[nH]c2ccccc12` [PCM-0216587], for which the inhibition at 10 µM is 3.1%. Same read-out and setting: next, `COc1cc(C)c2c(=O)c(-c3ccccc3)coc2c1` [PCM-0216420]: 32.4%; `O[C@@H]1[C@H](O)[C@@H](O)CO[C@H]1O` [PCM-0215084]: 0.8%. In the case of `Cc1ccc([N+](=O)[O-])cc1S(=O)(=O)N(C)/N=C/c1cnc2ccc(Br)cn12` [PCM-0094904], the inhibition at 10 µM came to 13.6%. The same measure, in the same setting: the result for `Cc1ccc(N(CC2=NCCN2)c2cccc(O)c2)cc1` [PCM-0065435] reads -8.6%; that for `CCOC(=O)[C@H](CCc1ccccc1)N[C@@H](C)C(=O)N1CCC[C@H]1C(=O)O` [PCM-0085929], 5.4%. The same measure, in the same setting: the result for `Cc1cc(C)cc(C(=O)NOCCCCCC(=O)NO)c1` [PCM-0215409] reads 9.3%; that for `COc1ccc(CCNCc2ccc(OCc3ccc(Cl)nc3)c(OC)c2)cc1OC` [PCM-0215426], -27.6%. The same measure, in the same setting: next, `CC(=O)N[C@@H]1[C@@H](O[C@@H]2O[C@H](C(=O)O)[C@@H](O)[C@H](O)[C@H]2O)[C@@H](O)[C@@H](OS(=O)(=O)O)O[C@H]1O` [PCM-0215884]: -22.1%; `C[C@@H]1C(=O)O[C@H]2[C@@H](O)[C@@]34[C@H]5C[C@@H](C(C)(C)C)[C@]36[C@@H](OC(=O)[C@@H]6O)O[C@@]4(C(=O)O5)[C@@]12O` [PCM-0214615]: 16.3%.

Take `O=c1[nH]c(=O)c2ncn([C@@H]3O[C@H](CO)[C@@H](O)[C@H]3O)c2[nH]1` [PCM-0216292]: the inhibition at 10 µM was found to be 13.1%.

For the compound `CN1CCN(c2c(F)cc3c(=O)c(C(=O)O)cn4c3c2OCN4C)CC1` [PCM-0095142], the inhibition at 10 µM amounted to 0%. Still for that read-out and setting: the result for `Cc1c(C(=O)NN2CCCCC2)nn(-c2ccc(Cl)cc2Cl)c1-c1ccc(I)cc1` [PCM-0095445] reads 34.2%; that for `O=C(O)c1ccc2c(c1)nc(Nc1cccc(Cl)c1)c1ccncc12` [PCM-0095287], 13.1%; that for `CC(C)=CCC[C@](C)(O)[C@H]1CC[C@]2(C)[C@@H]1[C@H](O)C[C@@H]1[C@@]3(C)CC[C@H](O)C(C)(C)[C@@H]3[C@@H](O[C@@H]3O[C@H](CO)[C@@H](O)[C@H](O)[C@H]3O[C@@H]3O[C@@H](C)[C@H](O)[C@@H](O)[C@H]3O)C[C@]12C` [PCM-0216405], -5.4%. On the same count and under the same terms, the result for `COCCNCc1ccc(-c2cc3nccc(Oc4ccc(NC(=O)C5(C(=O)Nc6ccc(F)cc6)CC5)cc4F)c3s2)nc1` [PCM-0215838] reads 81.4%; that for `Fc1ccc(Cl)cc1-c1nc(Nc2ccncc2)c2nccnc2n1` [PCM-0215428], -17%; that for `COc1cc(F)c(C(C)C)cc1-c1ccc(C(F)(F)F)cc1CN1C(=O)O[C@H](c2cc(C(F)(F)F)cc(C(F)(F)F)c2)[C@@H]1C` [PCM-0095486], 22.6%. Still for that read-out and setting: next, `COc1ccc([C@@H]2OC[C@H]3[C@@H]2CO[C@@H]3c2ccc(O[C@@H]3O[C@H](CO)[C@@H](O)[C@H](O)[C@H]3O)c(OC)c2)cc1OC` [PCM-0215021]: -6.2%; `CC(=O)OCC1=C(C(=O)O)N2C(=O)[C@@H](N)[C@H]2SC1` [PCM-0215190]: -8.5%. For the compound `CCn1cc(C(=O)O)c(=O)c2cc(F)c(N3CCNCC3)nc21` [PCM-0086249], the inhibition at 10 µM came to 4.7%.

On to `COC(=O)c1ccc(O)c(C(=O)OC)c1` [PCM-0215105], for which the inhibition at 10 µM was -13.1%. On the same count and under the same terms, next, `O=C(O)c1ccc(O)cc1` [PCM-0214982]: -10.9%; `C#CCN[C@@H]1CCc2ccccc21` [PCM-0090264]: -9.3%.

In the case of `CN(CC(=O)O)C(N)=NP(=O)(O)O` [PCM-0215959], the inhibition at 10 µM was -5.1%. Same read-out and setting: the result for `Cc1cc(=O)c(C(=O)N[C@@H](C(=O)N[C@@H]2C(=O)N3C(C(=O)O)=C(CSc4nnnn4C)CS[C@H]23)c2ccc(O)cc2)c[nH]1` [PCM-0216260] reads 23.2%.

As for `O=c1c(O)c(-c2ccc(O)cc2)oc2cc(O)cc(O)c12` [PCM-0087037], the inhibition at 10 µM amounted to 67.7%. Same read-out and setting: next, `CC1(C)S[C@@H]2[C@H](NC(=O)[C@H](N)c3ccccc3)C(=O)N2[C@H]1C(=O)OCOC(=O)[C@@H]1N2C(=O)C[C@H]2S(=O)(=O)C1(C)C` [PCM-0216243]: -11.6%. For the compound `NNc1nncc2ccccc12` [PCM-0065163], the inhibition at 10 µM was -0.9%. On the same count and under the same terms, next, `C[C@]12CC[C@@H]3c4ccc(OC(=O)c5ccccc5)cc4CC[C@H]3[C@@H]1CC[C@@H]2O` [PCM-0095636]: -7.8%; `CCn1cc(C(=O)O)c(=O)c2ccc(C)nc21` [PCM-0012961]: 5.4%; `CCCCCCCC(=O)CCc1ccc(O)c(OC)c1` [PCM-0216195]: -8.3%. For the compound `Nc1nccc(Oc2ccc3c(C(=O)Nc4cccc(C(F)(F)F)c4)cccc3c2)n1` [PCM-0215714], the inhibition at 10 µM was -2.8%. The same measure, in the same setting: next, `CCCCCCNC(=O)Nc1ccc(S(=O)(=O)Nc2ccc(CCNC[C@H](O)COc3ccc(O)cc3)cc2)cc1` [PCM-0215659]: 5.4%; `CCCCc1oc2ccccc2c1C(=O)c1cc(I)c(OCCN(CC)CC)c(I)c1` [PCM-0064561]: 75.5%; `Cc1cccc(C)c1NC(=O)C1CCCCN1C` (stereo not shown) [PCM-0086182]: 3.4%. The same measure, in the same setting: next, `N#Cc1cc(CN2CCC(Nc3ncnc4sc(Cl)cc34)CC2)ccc1F` [PCM-0095600]: 2.3%; `C=CC(=O)N1CCN(C(=O)CNc2cc(I)c(Cl)cc2O)CC1` [PCM-0215367]: 84.9%; `C[C@H]1CO[C@@H]2Cn3cc(C(=O)NCc4ccc(F)cc4F)c(=O)c(O)c3C(=O)N12` [PCM-0215445]: 24.7%.

In the case of `CC(C)C12CCC(C)(CC1)O2` [PCM-0216156], the inhibition at 10 µM came out at 23.9%. On the same count and under the same terms, the result for `Cc1[nH]nc(C(F)(F)F)c1Cc1sc2c(c1C(=O)N1C[C@](C)(O)CO1)c(=O)n(C)c(=O)n2C(C)C` [PCM-0215606] reads 6.9%; that for `Clc1cccc(-c2nnnn2Cc2cccnc2)c1Cl` [PCM-0215469], -0.8%. Same read-out and setting: the result for `Cc1c(C)c(NCC(=O)N(C)C2CCN(Cc3ccc(C(N)=O)cc3)CC2)c(C)c(C)c1N` [PCM-0215800] reads 12.4%; that for `O=c1nc(N2CCOCC2)oc2c(-c3cccc4c3sc3ccccc34)cccc12` [PCM-0215826], -1.4%; that for `COc1cc(CO)cc(OC)c1O` [PCM-0215146], -6.2%.
